Key:
[1] = The drug is tested on Z-005 corresponding to metagenome with ENA study accession number: PRJEB37062 and ENA sample accession number: ERS12561805 for biotransformation under anaerobic condition. The drug concentrations were measured over 9 timepoints collected between 0 and 24 hours of incubation by liquid-chromatography-coupled mass spectrometry (LC–MS); details: 2 µM
[2] = human gut metagenome, 24 h, 2 µM
[3] = (§1) The drug is tested on Z-028 corresponding to mouse gut metagenome with ENA study accession number: PRJEB37062 and ENA sample accession number: ERS12561827 for biotransformation under anaerobic condition. The drug concentrations were measured over 9 timepoints collected between 0 and 24 hours of incubation by liquid-chromatography-coupled mass spectrometry (LC–MS); details: 2 µM
[4] = human gut metagenome, 24 h, 2 µM; remark: listed apart in the source
[5] = human gut metagenome, 24 h, 2 µM; remark: listed apart in the source
[6] = as §1, with “Z-017” for “Z-028”, “ERS12561816” for “ERS12561827”; details: 2 µM
[7] = human gut metagenome, 24 h, 2 µM; remark: listed apart in the source
[8] = as §1, with “Z-009” for “Z-028”, “pig” for “mouse”, “ERS12561809” for “ERS12561827”; details: 2 µM
[9] = as §1, with “Z-024” for “Z-028”, “pig” for “mouse”, “ERS12561823” for “ERS12561827”; details: 2 µM
[10] = human gut metagenome, 24 h, 2 µM; remark: listed apart in the source
[11] = as §1, with “WLS-086” for “Z-028”, “human” for “mouse”, “ERS12561752” for “ERS12561827”; details: 2 µM
[12] = human gut metagenome, 24 h, 2 µM; remark: listed apart in the source
[13] = as §1, with “WLS-073” for “Z-028”, “human” for “mouse”, “ERS12561749” for “ERS12561827”; details: 2 µM
[14] = as §1, with “WLS-082” for “Z-028”, “human” for “mouse”, “ERS12561751” for “ERS12561827”; details: 2 µM
[15] = human gut metagenome, 24 h, 2 µM; remark: listed apart in the source
[16] = as §1, with “Z-025” for “Z-028”, “rabbit” for “mouse”, “ERS12561824” for “ERS12561827”; details: 2 µM
[17] = as §1, with “WLS-006” for “Z-028”, “human” for “mouse”, “ERS12561741” for “ERS12561827”; details: 2 µM
[18] = human gut metagenome, 24 h, 2 µM; remark: listed apart in the source
[19] = as §1, with “Z-018” for “Z-028”, “pig” for “mouse”, “ERS12561817” for “ERS12561827”; details: 2 µM
[20] = human gut metagenome, 24 h, 2 µM; remark: listed apart in the source
Further: call rule not given here.

SMILES	Bacterial Biotransformation [1]	Bacterial Biotransformation [2]	Bacterial Biotransformation [3]	Bacterial Biotransformation [4]	Bacterial Biotransformation [5]	Bacterial Biotransformation [6]	Bacterial Biotransformation [7]	Bacterial Biotransformation [8]	Bacterial Biotransformation [9]	Bacterial Biotransformation [10]	Bacterial Biotransformation [11]	Bacterial Biotransformation [12]	Bacterial Biotransformation [13]	Bacterial Biotransformation [14]	Bacterial Biotransformation [15]	Bacterial Biotransformation [16]	Bacterial Biotransformation [17]	Bacterial Biotransformation [18]	Bacterial Biotransformation [19]	Bacterial Biotransformation [20]
CCN(CC)C(=O)C1(c2ccccc2)CC1CN (stereo not given)	Compound NOT metabolized	Compound NOT metabolized	Compound NOT metabolized	Compound NOT metabolized	Compound NOT metabolized	Compound NOT metabolized	Compound NOT metabolized	Compound NOT metabolized	Compound NOT metabolized	Compound NOT metabolized	Compound NOT metabolized	Compound NOT metabolized	Compound NOT metabolized	Compound NOT metabolized	Compound NOT metabolized	Compound NOT metabolized	Compound NOT metabolized	Compound NOT metabolized	Compound NOT metabolized	Compound NOT metabolized
Nc1nc(NC2CC2)c2ncn([C@H]3C=C[C@@H](CO)C3)c2n1.Nc1nc(NC2CC2)c2ncn([C@H]3C=C[C@@H](CO)C3)c2n1.O=S(=O)(O)O [ABACAVIR SULFATE]	Compound NOT metabolized	Compound metabolized	Compound NOT metabolized	Compound metabolized	Compound NOT metabolized	Compound NOT metabolized	Compound metabolized	Compound NOT metabolized	Compound NOT metabolized	Compound metabolized	Compound metabolized	Compound metabolized	Compound metabolized	Compound NOT metabolized	Compound metabolized	Compound NOT metabolized	Compound metabolized	Compound metabolized	Compound NOT metabolized	Compound NOT metabolized
CC(C)C[C@H]1C(=O)N2CCC[C@H]2[C@]2(O)O[C@](NC(=O)[C@@H]3C=C4c5cccc6[nH]c(Br)c(c56)C[C@H]4N(C)C3)(C(C)C)C(=O)N12.CS(=O)(=O)O [BROMOCRIPTINE MESYLATE]	Compound metabolized	Compound NOT metabolized	Compound metabolized	Compound metabolized	Compound metabolized	Compound metabolized	–	Compound metabolized	Compound metabolized	Compound NOT metabolized	–	Compound NOT metabolized	Compound metabolized	Compound metabolized	–	Compound metabolized	Compound metabolized	Compound metabolized	Compound metabolized	Compound metabolized
CN[C@H]1CC[C@@H](c2ccc(Cl)c(Cl)c2)c2ccccc21 [SERTRALINE]	Compound NOT metabolized	Compound NOT metabolized	Compound NOT metabolized	Compound NOT metabolized	Compound NOT metabolized	Compound metabolized	Compound NOT metabolized	Compound metabolized	Compound metabolized	Compound NOT metabolized	Compound metabolized	Compound NOT metabolized	–	Compound metabolized	Compound NOT metabolized	Compound metabolized	Compound metabolized	Compound NOT metabolized	Compound metabolized	Compound metabolized

Second part, the compound after the results:

Bacterial Biotransformation [1]	Bacterial Biotransformation [2]	Bacterial Biotransformation [3]	Bacterial Biotransformation [4]	Bacterial Biotransformation [5]	Bacterial Biotransformation [6]	Bacterial Biotransformation [7]	Bacterial Biotransformation [8]	Bacterial Biotransformation [9]	Bacterial Biotransformation [10]	Bacterial Biotransformation [11]	Bacterial Biotransformation [12]	Bacterial Biotransformation [13]	Bacterial Biotransformation [14]	Bacterial Biotransformation [15]	Bacterial Biotransformation [16]	Bacterial Biotransformation [17]	Bacterial Biotransformation [18]	Bacterial Biotransformation [19]	Bacterial Biotransformation [20]	SMILES
Compound metabolized	Compound NOT metabolized	Compound NOT metabolized	Compound NOT metabolized	Compound NOT metabolized	Compound NOT metabolized	Compound metabolized	Compound metabolized	Compound metabolized	Compound NOT metabolized	Compound NOT metabolized	Compound NOT metabolized	Compound metabolized	Compound metabolized	Compound NOT metabolized	Compound metabolized	Compound NOT metabolized	Compound NOT metabolized	Compound metabolized	Compound NOT metabolized	COc1ccc(/C=C/C(=O)Nc2ccccc2C(=O)O)cc1OC
Compound NOT metabolized	Compound NOT metabolized	Compound NOT metabolized	Compound NOT metabolized	Compound NOT metabolized	Compound NOT metabolized	Compound NOT metabolized	Compound NOT metabolized	Compound NOT metabolized	Compound NOT metabolized	Compound metabolized	Compound NOT metabolized	Compound NOT metabolized	Compound NOT metabolized	Compound metabolized	Compound NOT metabolized	Compound NOT metabolized	Compound NOT metabolized	Compound NOT metabolized	Compound NOT metabolized	CCN(CC)CCNC(=O)c1ccc(NC(C)=O)cc1 [ACECAINIDE]
Compound metabolized	Compound metabolized	Compound metabolized	Compound metabolized	–	Compound NOT metabolized	–	Compound metabolized	Compound metabolized	–	–	Compound NOT metabolized	Compound metabolized	Compound metabolized	–	Compound metabolized	–	Compound metabolized	Compound metabolized	–	COC1=C(OC)C(=O)C(CCCCCCCCCCO)=C(C)C1=O [IDEBENONE]
Compound NOT metabolized	Compound NOT metabolized	Compound NOT metabolized	Compound NOT metabolized	Compound NOT metabolized	Compound NOT metabolized	Compound NOT metabolized	Compound NOT metabolized	Compound NOT metabolized	Compound metabolized	–	Compound NOT metabolized	Compound NOT metabolized	Compound metabolized	Compound metabolized	Compound metabolized	–	Compound NOT metabolized	Compound NOT metabolized	Compound NOT metabolized	COc1cc(NC(C)CCCN)c2ncccc2c1.O=P(O)(O)O.O=P(O)(O)O (stereo not given) [PRIMAQUINE PHOSPHATE]
Compound metabolized	–	Compound metabolized	Compound metabolized	Compound metabolized	Compound metabolized	Compound metabolized	Compound metabolized	Compound metabolized	Compound metabolized	Compound metabolized	Compound NOT metabolized	Compound metabolized	Compound metabolized	Compound metabolized	Compound metabolized	–	Compound metabolized	Compound metabolized	Compound metabolized	CC(=O)OCC(=O)NCCCOc1cccc(CN2CCCCC2)c1 [ROXATIDINE ACETATE]

Reference: ChEMBL document CHEMBL5724914, “Linking interpersonal differences in gut microbiota composition and drug biotransformation activity” (2024)
